ChEMBL document CHEMBL1201862, “PubChem BioAssay data set” (2004)
Calls of active or inactive are those of the source.

Legend:
[1] = biological target: T1, Histone-lysine N-methyltransferase NSD2 (Homo sapiens, UniProt O96028); assay type: biochemical
T1 sequence (O96028 whole entry): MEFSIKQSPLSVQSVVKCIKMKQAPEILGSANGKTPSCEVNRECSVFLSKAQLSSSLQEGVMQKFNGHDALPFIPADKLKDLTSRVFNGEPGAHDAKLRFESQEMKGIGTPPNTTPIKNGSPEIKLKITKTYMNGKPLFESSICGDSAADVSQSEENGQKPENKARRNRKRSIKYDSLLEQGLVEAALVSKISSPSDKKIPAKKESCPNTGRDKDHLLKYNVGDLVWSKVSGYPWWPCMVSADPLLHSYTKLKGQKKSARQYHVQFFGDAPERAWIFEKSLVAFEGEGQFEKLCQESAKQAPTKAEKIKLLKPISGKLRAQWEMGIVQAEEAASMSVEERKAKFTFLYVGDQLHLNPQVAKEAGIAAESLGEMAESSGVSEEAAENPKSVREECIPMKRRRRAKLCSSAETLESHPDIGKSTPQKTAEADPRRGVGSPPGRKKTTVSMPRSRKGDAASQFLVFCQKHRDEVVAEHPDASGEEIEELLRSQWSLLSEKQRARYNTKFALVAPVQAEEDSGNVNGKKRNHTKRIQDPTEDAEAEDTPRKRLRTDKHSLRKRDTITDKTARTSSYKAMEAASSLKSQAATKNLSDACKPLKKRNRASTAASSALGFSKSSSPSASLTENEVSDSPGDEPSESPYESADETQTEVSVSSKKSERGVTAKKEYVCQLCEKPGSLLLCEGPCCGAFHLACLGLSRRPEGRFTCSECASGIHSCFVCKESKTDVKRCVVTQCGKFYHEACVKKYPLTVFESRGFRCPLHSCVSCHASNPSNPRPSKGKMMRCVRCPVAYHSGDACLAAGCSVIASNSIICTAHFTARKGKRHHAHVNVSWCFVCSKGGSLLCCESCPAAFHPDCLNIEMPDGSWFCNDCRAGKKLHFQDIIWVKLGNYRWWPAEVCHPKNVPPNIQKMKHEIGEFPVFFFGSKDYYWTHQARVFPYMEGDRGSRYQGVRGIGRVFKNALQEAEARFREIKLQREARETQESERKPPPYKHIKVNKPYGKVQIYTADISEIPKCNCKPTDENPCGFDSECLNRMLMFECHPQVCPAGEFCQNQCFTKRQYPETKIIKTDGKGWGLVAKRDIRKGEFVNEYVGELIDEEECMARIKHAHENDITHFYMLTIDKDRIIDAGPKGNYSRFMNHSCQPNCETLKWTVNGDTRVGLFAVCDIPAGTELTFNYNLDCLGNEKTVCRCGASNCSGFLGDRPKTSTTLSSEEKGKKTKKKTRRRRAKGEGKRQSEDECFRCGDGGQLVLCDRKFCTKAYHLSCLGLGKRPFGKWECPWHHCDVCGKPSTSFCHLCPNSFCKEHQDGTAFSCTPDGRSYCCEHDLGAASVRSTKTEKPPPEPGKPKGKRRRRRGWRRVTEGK

[2] = luciferase reporter signal suppression in cells – H4 neuroglioma cells, luminescence, dose response (AID 1990); assay type: functional, cell-based
[3] = system: HEK293; assay: cells; assay type: functional, cell-based; conditions: Homo sapiens
[4] = biological target: Serine/threonine-protein kinase Nek2 (Homo sapiens, UniProt P51955); assay type: functional
Serine/threonine-protein kinase Nek2, sequence (P51955 whole entry): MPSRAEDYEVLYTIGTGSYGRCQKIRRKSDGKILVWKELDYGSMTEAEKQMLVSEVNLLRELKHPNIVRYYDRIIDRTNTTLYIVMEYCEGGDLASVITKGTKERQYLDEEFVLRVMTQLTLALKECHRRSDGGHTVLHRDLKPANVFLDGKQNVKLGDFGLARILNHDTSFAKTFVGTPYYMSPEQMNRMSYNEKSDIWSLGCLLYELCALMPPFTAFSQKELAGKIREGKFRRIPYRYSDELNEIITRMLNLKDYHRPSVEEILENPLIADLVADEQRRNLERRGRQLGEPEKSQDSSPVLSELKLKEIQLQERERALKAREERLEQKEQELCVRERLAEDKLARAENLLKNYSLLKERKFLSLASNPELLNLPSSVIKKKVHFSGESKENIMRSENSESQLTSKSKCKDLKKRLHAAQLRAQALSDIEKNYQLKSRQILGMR

[5] = biological target: Serine/threonine-protein kinase 17A (Homo sapiens, UniProt Q9UEE5); assay type: functional
Serine/threonine-protein kinase 17A, sequence (Q9UEE5 whole entry): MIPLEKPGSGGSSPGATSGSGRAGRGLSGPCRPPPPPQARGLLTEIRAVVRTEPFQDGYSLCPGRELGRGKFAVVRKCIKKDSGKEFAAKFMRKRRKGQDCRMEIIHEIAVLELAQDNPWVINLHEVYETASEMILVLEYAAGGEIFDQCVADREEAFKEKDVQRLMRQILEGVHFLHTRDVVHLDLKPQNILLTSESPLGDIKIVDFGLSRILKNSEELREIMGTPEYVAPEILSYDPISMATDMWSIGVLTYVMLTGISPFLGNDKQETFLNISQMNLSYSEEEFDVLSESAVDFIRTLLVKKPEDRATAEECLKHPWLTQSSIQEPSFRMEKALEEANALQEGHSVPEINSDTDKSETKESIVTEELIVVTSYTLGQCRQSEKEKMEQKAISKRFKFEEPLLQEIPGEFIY

[6] = biological target: Cyclin-dependent kinase 9 (Homo sapiens, UniProt P50750); assay type: functional;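 also: value from the CDK9 entry of a kinome-spanning kinase panel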
Cyclin-dependent kinase 9, sequence (P50750 whole entry): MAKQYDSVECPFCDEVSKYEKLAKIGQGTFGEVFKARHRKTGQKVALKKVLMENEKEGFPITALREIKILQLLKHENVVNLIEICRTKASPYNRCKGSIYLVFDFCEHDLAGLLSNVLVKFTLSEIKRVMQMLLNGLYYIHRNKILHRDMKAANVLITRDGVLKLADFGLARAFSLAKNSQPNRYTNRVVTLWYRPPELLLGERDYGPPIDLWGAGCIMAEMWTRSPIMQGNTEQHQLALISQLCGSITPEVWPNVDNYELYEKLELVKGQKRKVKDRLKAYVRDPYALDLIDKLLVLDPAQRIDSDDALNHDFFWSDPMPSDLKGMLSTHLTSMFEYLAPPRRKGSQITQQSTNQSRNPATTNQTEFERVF

[7] = biological target: MAP kinase-interacting serine/threonine-protein kinase 2 (Homo sapiens, UniProt Q9HBH9); assay type: functional
MAP kinase-interacting serine/threonine-protein kinase 2, sequence (Q9HBH9 whole entry): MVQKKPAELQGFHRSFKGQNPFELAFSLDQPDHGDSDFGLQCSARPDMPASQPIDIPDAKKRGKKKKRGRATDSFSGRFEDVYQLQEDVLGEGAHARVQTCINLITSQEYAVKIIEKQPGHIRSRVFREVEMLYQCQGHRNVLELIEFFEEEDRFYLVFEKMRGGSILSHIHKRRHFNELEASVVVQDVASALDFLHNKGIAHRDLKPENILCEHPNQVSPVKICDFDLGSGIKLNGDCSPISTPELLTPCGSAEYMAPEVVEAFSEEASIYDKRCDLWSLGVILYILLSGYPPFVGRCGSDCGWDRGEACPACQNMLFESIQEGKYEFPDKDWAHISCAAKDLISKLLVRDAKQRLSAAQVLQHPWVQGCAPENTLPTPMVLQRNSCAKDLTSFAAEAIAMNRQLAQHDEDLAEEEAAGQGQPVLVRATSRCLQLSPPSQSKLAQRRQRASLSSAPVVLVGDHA

[8] = biological target: Serine/threonine-protein kinase pim-1 (Homo sapiens, UniProt P11309); assay type: functional
Serine/threonine-protein kinase pim-1, sequence (P11309 whole entry): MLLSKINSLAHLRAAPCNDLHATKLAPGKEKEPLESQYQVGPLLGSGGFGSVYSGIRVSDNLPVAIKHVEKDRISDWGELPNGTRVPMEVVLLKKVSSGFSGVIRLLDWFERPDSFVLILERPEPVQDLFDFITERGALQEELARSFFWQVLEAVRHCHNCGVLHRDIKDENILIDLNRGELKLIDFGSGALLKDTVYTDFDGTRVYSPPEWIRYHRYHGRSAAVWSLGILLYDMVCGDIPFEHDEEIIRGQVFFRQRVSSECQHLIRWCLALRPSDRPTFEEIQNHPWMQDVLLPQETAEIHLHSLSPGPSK

[9] = biological target: Tyrosine-protein kinase JAK2 (Homo sapiens, UniProt O60674); assay type: functional;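 also: JAK2 tested as one member of a kinase panel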
[10] = biological target: Platelet-derived growth factor receptor beta (Homo sapiens, UniProt P09619); assay type: functional;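 also: value comes from a kinome panel, with PDGFRB tested as one panel member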
[11] = biological target: Proto-oncogene tyrosine-protein kinase receptor Ret (Homo sapiens, UniProt P07949); assay type: functional;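 also: measured within a kinome-wide profiling panel, RET as the panel member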
Proto-oncogene tyrosine-protein kinase receptor Ret, sequence (P07949 whole entry): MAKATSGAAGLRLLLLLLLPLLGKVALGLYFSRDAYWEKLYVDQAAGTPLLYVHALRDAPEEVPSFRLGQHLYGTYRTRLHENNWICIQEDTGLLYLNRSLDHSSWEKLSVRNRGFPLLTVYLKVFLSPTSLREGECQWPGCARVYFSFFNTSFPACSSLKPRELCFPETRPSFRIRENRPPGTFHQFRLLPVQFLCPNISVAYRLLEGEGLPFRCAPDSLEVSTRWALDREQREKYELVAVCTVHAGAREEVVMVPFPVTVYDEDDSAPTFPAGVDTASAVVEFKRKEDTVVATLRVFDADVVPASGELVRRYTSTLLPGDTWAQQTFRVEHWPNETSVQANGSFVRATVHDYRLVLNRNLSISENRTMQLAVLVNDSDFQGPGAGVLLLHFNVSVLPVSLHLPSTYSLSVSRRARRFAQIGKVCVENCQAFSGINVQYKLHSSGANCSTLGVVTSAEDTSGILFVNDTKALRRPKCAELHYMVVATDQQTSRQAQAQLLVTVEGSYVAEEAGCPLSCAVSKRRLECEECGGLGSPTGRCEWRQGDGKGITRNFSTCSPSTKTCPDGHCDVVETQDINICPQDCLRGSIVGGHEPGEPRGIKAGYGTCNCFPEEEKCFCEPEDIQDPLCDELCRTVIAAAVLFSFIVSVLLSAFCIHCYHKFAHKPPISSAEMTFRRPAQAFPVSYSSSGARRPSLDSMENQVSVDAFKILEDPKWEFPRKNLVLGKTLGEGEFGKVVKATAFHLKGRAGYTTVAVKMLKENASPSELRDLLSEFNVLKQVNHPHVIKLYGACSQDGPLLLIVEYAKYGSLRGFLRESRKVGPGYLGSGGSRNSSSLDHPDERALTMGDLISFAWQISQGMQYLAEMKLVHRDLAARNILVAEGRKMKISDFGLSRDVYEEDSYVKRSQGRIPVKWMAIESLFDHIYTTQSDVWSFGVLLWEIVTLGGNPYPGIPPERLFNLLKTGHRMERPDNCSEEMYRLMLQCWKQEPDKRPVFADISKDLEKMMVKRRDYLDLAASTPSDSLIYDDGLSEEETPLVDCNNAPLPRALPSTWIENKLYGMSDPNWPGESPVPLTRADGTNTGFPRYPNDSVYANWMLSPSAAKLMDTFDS

[12] = biological target: Mitogen-activated protein kinase 14 (Homo sapiens, UniProt Q16539); assay type: functional;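 also: part of a kinome-wide panel, MAPK14 entry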
[13] = biological target: Maternal embryonic leucine zipper kinase (Homo sapiens, UniProt Q14680); assay type: functional
[14] = biological target: SRSF protein kinase 1 (Homo sapiens, UniProt Q96SB4); assay type: functional;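 also: measured as one member of a kinome-wide kinase profiling panel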
[15] = biological target: Casein kinase I isoform delta (Homo sapiens, UniProt P48730); assay type: functional;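 also: measured as one member (CSNK1D) of a kinome panel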
[16] = biological target: Insulin-like growth factor 1 receptor (Homo sapiens, UniProt P08069); assay: Navigating the Kinome. Panel member name: IGF1R; assay type: functional
Insulin-like growth factor 1 receptor, sequence (P08069 31-736 limits assumed): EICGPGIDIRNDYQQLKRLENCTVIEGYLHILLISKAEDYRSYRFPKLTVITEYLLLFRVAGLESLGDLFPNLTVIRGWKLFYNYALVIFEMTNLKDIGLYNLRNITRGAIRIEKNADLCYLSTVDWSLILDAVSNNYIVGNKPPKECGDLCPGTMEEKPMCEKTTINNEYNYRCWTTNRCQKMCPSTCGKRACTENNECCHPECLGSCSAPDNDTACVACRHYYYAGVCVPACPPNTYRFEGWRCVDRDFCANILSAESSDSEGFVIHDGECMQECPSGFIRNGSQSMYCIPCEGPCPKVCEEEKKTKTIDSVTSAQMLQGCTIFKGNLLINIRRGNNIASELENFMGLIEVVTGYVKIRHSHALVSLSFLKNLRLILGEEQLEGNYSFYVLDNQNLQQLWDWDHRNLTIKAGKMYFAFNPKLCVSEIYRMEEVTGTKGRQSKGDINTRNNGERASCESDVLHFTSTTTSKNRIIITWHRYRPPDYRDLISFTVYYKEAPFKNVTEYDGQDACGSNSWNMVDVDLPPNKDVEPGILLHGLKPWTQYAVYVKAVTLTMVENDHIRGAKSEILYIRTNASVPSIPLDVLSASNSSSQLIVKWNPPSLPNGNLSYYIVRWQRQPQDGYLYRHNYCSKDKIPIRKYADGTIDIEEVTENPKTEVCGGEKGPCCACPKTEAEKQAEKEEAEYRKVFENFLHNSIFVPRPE
Insulin-like growth factor 1 receptor, sequence (P08069 741-1367 limits assumed): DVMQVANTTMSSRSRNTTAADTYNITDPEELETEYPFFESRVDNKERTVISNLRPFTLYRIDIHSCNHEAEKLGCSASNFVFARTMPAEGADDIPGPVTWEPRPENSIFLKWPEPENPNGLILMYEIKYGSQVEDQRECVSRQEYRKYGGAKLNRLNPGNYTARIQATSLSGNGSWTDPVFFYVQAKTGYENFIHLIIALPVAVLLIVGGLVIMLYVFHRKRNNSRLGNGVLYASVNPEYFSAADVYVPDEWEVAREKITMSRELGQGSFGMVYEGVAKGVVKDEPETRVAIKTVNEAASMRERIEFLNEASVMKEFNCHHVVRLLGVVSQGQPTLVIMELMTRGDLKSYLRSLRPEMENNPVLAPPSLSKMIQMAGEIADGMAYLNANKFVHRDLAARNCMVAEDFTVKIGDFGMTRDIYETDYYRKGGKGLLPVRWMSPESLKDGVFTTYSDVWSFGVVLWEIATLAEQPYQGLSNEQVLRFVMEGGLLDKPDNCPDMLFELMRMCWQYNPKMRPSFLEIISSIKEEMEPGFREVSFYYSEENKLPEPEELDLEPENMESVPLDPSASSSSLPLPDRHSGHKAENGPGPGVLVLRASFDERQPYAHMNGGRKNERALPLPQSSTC

[17] = biological target: Ribosomal protein S6 kinase alpha-5 (Homo sapiens, UniProt O75582); assay type: functional
[18] = biological target: Serine/threonine-protein kinase PLK3 (Homo sapiens, UniProt Q9H4B4); assay type: functional
[19] = biological target: Protein-tyrosine kinase 6 (Homo sapiens, UniProt Q13882); assay type: functional
Protein-tyrosine kinase 6, sequence (Q13882 whole entry): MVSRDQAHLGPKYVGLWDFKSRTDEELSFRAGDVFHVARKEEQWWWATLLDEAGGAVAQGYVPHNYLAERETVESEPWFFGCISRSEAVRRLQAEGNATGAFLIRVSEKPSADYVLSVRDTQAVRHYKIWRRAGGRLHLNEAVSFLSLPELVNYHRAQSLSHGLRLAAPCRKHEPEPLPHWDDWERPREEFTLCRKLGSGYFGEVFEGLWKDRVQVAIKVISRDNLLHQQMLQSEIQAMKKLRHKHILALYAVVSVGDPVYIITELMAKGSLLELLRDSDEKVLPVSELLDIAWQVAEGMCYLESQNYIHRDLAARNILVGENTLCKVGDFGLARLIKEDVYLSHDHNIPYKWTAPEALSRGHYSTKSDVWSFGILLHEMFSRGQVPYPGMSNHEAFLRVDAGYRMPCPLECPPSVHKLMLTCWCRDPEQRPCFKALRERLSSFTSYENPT

[20] = biological target: Tyrosine-protein kinase FRK (Homo sapiens, UniProt P42685); assay type: functional;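 also: FRK tested as one member of a kinome panel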
[21] = biological target: T2, Streptokinase A (Streptococcus pyogenes serotype M1, UniProt P10520); assay: viability-normalized secreted streptokinase activity reduction – plasminogen activation absorbance, OD405, dose response (AID 1914); assay type: functional, Streptococcus pyogenes M1 GAS;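 also: secreted streptokinase activity via plasminogen activation per viability signal from cell pellet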
T2 sequence (P10520 whole entry): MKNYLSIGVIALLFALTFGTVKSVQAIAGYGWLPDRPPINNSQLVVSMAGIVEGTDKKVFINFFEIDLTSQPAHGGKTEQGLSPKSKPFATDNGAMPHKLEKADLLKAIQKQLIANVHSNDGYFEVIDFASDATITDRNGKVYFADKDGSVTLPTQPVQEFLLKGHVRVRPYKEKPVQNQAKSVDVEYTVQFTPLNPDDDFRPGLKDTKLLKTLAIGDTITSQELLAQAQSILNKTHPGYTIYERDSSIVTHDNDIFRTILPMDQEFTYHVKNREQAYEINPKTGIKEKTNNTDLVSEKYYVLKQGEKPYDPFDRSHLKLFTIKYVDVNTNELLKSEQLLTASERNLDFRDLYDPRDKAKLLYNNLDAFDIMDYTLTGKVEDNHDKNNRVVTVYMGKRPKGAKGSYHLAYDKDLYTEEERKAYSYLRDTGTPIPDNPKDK

[22] = RKO cell viability reduction, dose response, CellTiter-Glo luminescence (AID 1117322); assay type: functional

Compound: O=C1C=C(N2CCOCC2)c2ccccc2C1=O
- AC50 [1]: 1380 nM (active)
- EC50 [2]: 8370 nM (active)
- IC50 [3]: 9460 nM (active)

Compound: N#Cc1ccc2[nH]c(O)c(-c3ccc(CN4CCOCC4)cn3)c2c1 [AZD-1080]
- Ki [4]: > 10000 nM (inactive)
- Ki [5]: 501 nM (active)
- Ki [6]: > 1580 nM (inactive)
- Ki [7]: > 10000 nM (inactive)
- Ki [8]: > 5010 nM (inactive)
- Ki [9]: > 2000 nM (inactive)
- Ki [10]: > 2000 nM (inactive)
- Ki [11]: > 2510 nM (inactive)
- Ki [12]: > 3980 nM (inactive)
- Ki [13]: > 1580 nM (inactive)
- Ki [14]: > 7940 nM (inactive)
- Ki [15]: > 7940 nM (inactive)
- Ki [16]: > 2510 nM (inactive)
- Ki [17]: > 2000 nM (inactive)
- Ki [18]: > 7940 nM (inactive)
- Ki [19]: > 2510 nM (inactive)
- Ki [20]: > 2510 nM (inactive)

Compound: CCc1oc2ccccc2c1C(=O)c1cc(Br)c(O)c(Br)c1 [BENZBROMARONE]
- EC50 [21]: 17200 nM (inconclusive)
- IC50 [22]: 131 nM (active)
